Tests used:
[1] = target: T1, AdhE2-ADH (alcohol dehydrogenase domain of bifunctional AdhE2, wild type, GI 499193180, SEQ ID NO: 41) (Clostridium acetobutylicum, UniProt Q9ANR5); test: In vitro kinetics of aldehyde/alcohol dehydrogenases, oxidation of NADH at 340 nm (alcohol dehydrogenase domain of AdhE2); type: biochemical
T1 construct: alcohol dehydrogenase activity (C-terminal domain) measured
T1 sequence (Q9ANR5 1-858): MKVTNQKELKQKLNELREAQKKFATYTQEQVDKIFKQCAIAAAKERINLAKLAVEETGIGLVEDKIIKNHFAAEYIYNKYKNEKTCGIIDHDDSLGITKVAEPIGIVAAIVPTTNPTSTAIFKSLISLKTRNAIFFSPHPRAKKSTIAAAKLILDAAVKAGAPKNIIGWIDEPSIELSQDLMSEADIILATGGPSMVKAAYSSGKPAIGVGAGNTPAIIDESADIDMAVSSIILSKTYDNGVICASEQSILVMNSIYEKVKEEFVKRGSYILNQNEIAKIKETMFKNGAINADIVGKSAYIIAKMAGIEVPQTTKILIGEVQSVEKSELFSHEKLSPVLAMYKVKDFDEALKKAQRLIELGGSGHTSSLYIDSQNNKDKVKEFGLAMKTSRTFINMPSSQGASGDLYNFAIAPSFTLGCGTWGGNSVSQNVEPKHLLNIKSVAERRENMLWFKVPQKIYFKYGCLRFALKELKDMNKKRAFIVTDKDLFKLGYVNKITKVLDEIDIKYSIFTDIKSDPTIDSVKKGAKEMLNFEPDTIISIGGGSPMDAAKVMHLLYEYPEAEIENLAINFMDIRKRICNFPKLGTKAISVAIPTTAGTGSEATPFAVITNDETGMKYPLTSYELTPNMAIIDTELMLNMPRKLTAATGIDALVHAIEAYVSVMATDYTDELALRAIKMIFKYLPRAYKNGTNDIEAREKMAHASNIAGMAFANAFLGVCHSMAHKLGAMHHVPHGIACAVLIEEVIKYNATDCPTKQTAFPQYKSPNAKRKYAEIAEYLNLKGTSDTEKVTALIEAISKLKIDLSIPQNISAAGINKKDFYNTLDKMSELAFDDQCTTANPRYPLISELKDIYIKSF
Method: (§1) Activity of ALDH proteins was measured by monitoring the oxidation of NADH at 340 nm at 30° C. The assay mixture (400 μL) contained 100 μM NADH in 100 mM Tris 1 mM DTT pH 7.5. The reaction was initiated by the addition of substrate. Kinetic parameters (kcat, KM) were determined by fitting the data using Microcal Origin to the equation: vo=vmax [S]/(KM+[S]), where v is the initial rate and [S] is the substrate concentration. Data are reported as mean±s.e. (n=3) unless otherwise noted with standard error derived from the nonlinear curve fitting. Error bars on graphs represent mean±s.d. (n=3). Error in kcat/KM is calculated by propagation of error from the individual kinetic parameters.
(§2) To further explore the potential for expressing monofunctional aldehyde and alcohol dehydrogenases in host cells for the production of alcohols, various aldehyde and alcohol dehydrogenases were purified and isolated to investigate their in vitro kinetic behavior with various C4 and C2 substrates. In particular, the monofunctional aldehyde dehydrogenase identified in FIG. 3 above (GI 150018649, also referred to as ALDH16) was purified (FIG. 4A and FIG. 4B) and the in vitro kinetic behavior of a purified Strep-ALDH16 protein with various C4 and C2 substrates was tested.

[2] = target: T2, ALDH16 (monofunctional aldehyde dehydrogenase, GI 150018649, SEQ ID NO: 16; Strep-ALDH16) (Clostridium diolis, UniProt A0AAV3W6M8); test: In vitro kinetics of aldehyde/alcohol dehydrogenases, oxidation of NADH at 340 nm (purified Strep-ALDH16); type: biochemical; conditions: compared with ALDH domain of AdhE2
T2 sequence (A0AAV3W6M8 1-468): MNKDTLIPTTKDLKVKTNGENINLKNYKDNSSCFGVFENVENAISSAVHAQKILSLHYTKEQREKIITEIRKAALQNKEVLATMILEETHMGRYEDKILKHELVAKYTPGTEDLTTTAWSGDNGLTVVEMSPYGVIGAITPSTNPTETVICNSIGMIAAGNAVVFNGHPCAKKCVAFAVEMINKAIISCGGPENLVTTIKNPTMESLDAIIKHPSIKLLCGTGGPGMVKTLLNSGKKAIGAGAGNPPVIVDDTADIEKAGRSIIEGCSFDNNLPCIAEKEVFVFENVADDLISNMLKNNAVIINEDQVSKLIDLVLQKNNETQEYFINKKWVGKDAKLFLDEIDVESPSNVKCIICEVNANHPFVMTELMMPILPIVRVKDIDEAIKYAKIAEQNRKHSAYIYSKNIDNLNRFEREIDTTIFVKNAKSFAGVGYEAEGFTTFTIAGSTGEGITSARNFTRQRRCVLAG
Method: as §1, §2

Row | higher KM for acetyl-CoA [2] [fold] | SMILES | kcat ([1]; 100 μM NADH, 100 mM Tris, 1 mM DTT, pH 7.5, 30° C., mean±s.e. (n=3)) [s⁻¹] | preference for acetaldehyde over butyraldehyde ([1]; from Table 4) [fold]
1 | – | CC=O [acetaldehyde] | 5.6 ± 0.1 | 1.7
2 | 5 | CC(=O)SCCNC(=O)CCNC(=O)[C@H](O)C(C)(C)COP(=O)(O)OP(=O)(O)OC[C@H]1O[C@@H](n2cnc3c(N)ncnc32)[C@H](O)[C@@H]1OP(=O)(O)O [acetyl-CoA] | – | –

Reference: patent US20180291353A1, “MONOFUNCTIONAL ALDEHYDE AND ALCOHOL DEHYDROGENASES FOR PRODUCTION OF FUELS AND COMMODITY CHEMICALS” (The Regents of the University of California, priority 2015, published 2018)
